Tests used:
[1] = Dissociation constant to estimate the calcium binding to the compound at the ratio of 2:1
[2] = Dissociation constant to estimate the calcium binding to the compound at the ratio of 1:1

K2 [1]: 26 µM | K1 [2]: 100 µM
Structure (SMILES): COC(=O)C1=C(C)NC(C)=C(C(=O)OCCN(C)Cc2ccccc2)C1c1cccc([N+](=O)[O-])c1 (configuration not stated)

From ChEMBL document CHEMBL1127296, “Interaction of calcium channel antagonists with calcium: structural studies on nicardipine and its Ca2+ complex” (J Med Chem, 1994)
